In US20090306132A1, “USE OF DERIVATIVES OF NAPHTHALENESULPHONIC OR QUINOLINESULPHONIC ACID IN THE TREATMENT OF VASOPROLIFERATIVE OCULAR DISEASES” (ITALFARMACO, S.A., priority 2006, published 2009):

System: hypoxia-induced hypervascularization of the retina
Experiment: Inhibition of hypoxia-induced vascularization in a mouse model of retinopathy of prematurity (retinopathy score)
Assay type: in vivo, C57BL/6J mice
Procedure: A total of thirty C57BL/6J mice were used in a model of retinopathy of prematurity. Seven days after birth, the mice (young) were transferred together with their mothers to a high-oxygen atmosphere (75%) obtained using a mixture of oxygen and air. After 5 days, the animals were transferred to a normal atmosphere. The relative hypoxia produced leads to the release of growth factors which, in turn, cause hypervascularization of the retina. 14-18 hours thereafter, an intravitreous injection of 2 μl of a sterile saline solution of sodium 5-amino-2-naphthalene sulfonate (25 mg/ml) into an eye was performed, and another injection of an equivalent volume of saline solution was performed in the contralateral eye.
Five days after the return to normal atmosphere, the mice were put down by means of an intracardiac injection of dextrane marked with fluorescein (50 mg/ml), the nuclei were removed from both eyes and were fixed for 2 to 6 hours in formaldehyde (4%) at room temperature.
Subsequently, the retina was cut and mounted for observation by fluorescent microscopy, with the vasculature of the retina being assessed. Given that the retina occupies a circular area, in order to perform the assessment, 12 equal radial segments are considered. For the assessment of the central vascularization, the retina is divided into three concentric circles defining three zones: the interior zone around the optic disc, the middle and the exterior zone.
The retinopathy is quantified using a system of multiple assessment in which various morphological parameters associated with retinopathy are assessed: • Presence of a “crest” in each radial segment. One point for each radial segment with the presence of crests. Scoring from 0 to 12. • Presumed extraretinal vascularization, indicated by the presence of groupings of “crest-like” structures. One point for each radial segment with groupings. Scoring from 0 to 12. • Size of the central avascular zone. Scoring from 0 to 3, with 0 meaning an occupation of less than 50% of the interior zone; 1 an occupation of less than 25% of the sum of the interior and middle zone; 2 an occupation of between 25-50% of said sum and 3 an occupation of greater than 50% of same. • Tortuosity of the vessels, measured as a percentage of tortuous vessels with respect to the total. The scoring ranges from 0 to 3, with 0 meaning no tortuosity, 1 if less than ⅓ of the total are tortuous, 2 if between ⅓ and ⅔ are tortuous, and 3 if more than ⅔ are tortuous.
For each eye, a global assessment was obtained consisting of the sum of the points obtained for each parameter.
The statistical analysis of the data was performed subsequently using a Wilcoxon's test.

[1] = intravitreous injection of 2 μl of 25 mg/ml in saline, five days after return to normal atmosphere, N 30

## Nc1cccc2cc(S(=O)(=O)[O-])ccc12.[Na+] [ACTIVE, sodium 5-amino-2-naphthalene sulfonate]
Histological sections, FIG. 2
  Effect seen in histological sections of treated eye versus contralateral placebo eye (in words): antiangiogenic effect
Intravitreous injection of 2 μl of 25 mg/ml in saline into one eye, saline in contralateral eye, assessed five days after return to normal atmosphere, N 30, p=0.017 vs placebo (Wilcoxon)
  Global retinopathy assessment (sum of the points obtained for each parameter), Median: 10.5
[1]
  Global retinopathy assessment (sum of the points obtained for each parameter), Maximum: 16
  Global retinopathy assessment (sum of the points obtained for each parameter), Minimum: 3
Score compared to placebo, FIG. 1
  Effect on neovascularization induced by hypoxia of the retina (in words): inhibitory effect
